This is an account of results in US4356186A, “Acetic acid derivatives and composition containing the same” (priority 1980, dated 1982).

SMILES strings stand for the structures. Read-outs that look alike come from different tables or passages of the source.

In data set [1] the test system is carrageenin-induced hind paw edema. Description: Anti-inflammatory activity (carrageenin-induced hind paw edema in rats). The class given is in vivo, Male Wistar rats. The note with it: for inhibition in vivo at 1 mg/kg / inhibition in vivo at 2 mg/kg / inhibition in vivo at 4 mg/kg / inhibition in vivo at 8 mg/kg / inhibition in vivo at 5 mg/kg / inhibition in vivo at 20 mg/kg / inhibition in vivo at 40 mg/kg / inhibition in vivo at 80 mg/kg / inhibition in vivo at 160 mg/kg / inhibition in vivo at 0.2 mg/kg / inhibition in vivo at 0.4 mg/kg / inhibition in vivo at 0.8 mg/kg / inhibition in vivo at 1.6 mg/kg / inhibition in vivo at 3.2 mg/kg: Rattus norvegicus, po; for inhibition in vivo at 1 mg/kg: 1 mg/kg p.o.; for inhibition in vivo at 4 mg/kg: 4 mg/kg p.o.; for inhibition in vivo at 8 mg/kg: 8 mg/kg p.o.; for inhibition in vivo at 0.2 mg/kg: 0.2 mg/kg p.o.; for inhibition in vivo at 0.4 mg/kg: 0.4 mg/kg p.o.; for inhibition in vivo at 0.8 mg/kg: 0.8 mg/kg p.o.; for inhibition in vivo at 1.6 mg/kg: 1.6 mg/kg p.o.; for inhibition in vivo at 3.2 mg/kg: 3.2 mg/kg p.o. How it is done: Anti-inflammatory activity (carrageenin-induced hind paw edema in rats)
The test was carried out in a similar manner as disclosed in Proc. Soc. Exptl.
Male Wistar rats, weighing 100-300 g, were used. A 1% aqueous carrageenin solution (0.1 ml) was administered subcutaneously into the hind foot pad of rats. Two and three hours after the carrageenin injection, the paw volume was measured and the swelling rate was calculated based on the paw volume before the carrageenin injection. The inhibitory rate was determined as compared with the average swelling rate of the control group to which only vehicle was administered. The test compounds were administered orally one hour before the carrageenin injection.
Background: Carrageenan injected into the paw causes an acute inflammation.

Another data set has as its system stomach ulcer. The data set is described as follows: Gastrointestinal ulcerogenicity. The class given is in vivo, Male Wistar rats. Also on record: key to Average score of stomach ulcer: ulcer score 1 to 4, 4 = most severe ulcer. The note with it: for Number of rats having a score of stomach ulcer of 2 or more/total number of rats used / Average score of stomach ulcer: after 6 hours; for Average score of stomach ulcer: score 1 to 4; for gastrointestinal ulcerogenicity compared with the known aspirin: in words, from Table 2. On the procedure: Gastrointestinal ulcerogenicity
The test was carried out in a similar manner as disclosed in Arzneim. Forsch., 19, 36 (1969).
Male Wistar rats, weighing 130-180 g, were used. After the rats were fasted for 24 hours, the test compound was orally administered one time. After 6 hours, the rats were killed and the stomach was removed. […] The degree of stomach ulcer was scored from 1 to 4, wherein 4 is the most severe ulcer. In Table 2, there are shown the average score of stomach ulcer in each dose and also the ratio of the number of rats having a score of stomach ulcer of 2 or more to total number of rats used.

A short description of another data set: Acute lethal toxicity. The class given is in vivo. The note with it: rat, in vivo; single oral administration, mortality on the 7th day, Litchfield and Wilcoxon. On the procedure: (§1) The mortality was observed on the 7th day after single oral administration of test compounds in male Wistar rats, and the LD50 was calculated according to the method of Litchfield and Wilcoxon.

In another data set the test system is male Wistar rats. Description: Acute lethal toxicity. The class given is in vivo. To be noted: from LD50, single oral administration. How it is done:
as §1

Where [2] appears, read: 2 h, two hours, read-out: Inhibitory rate, two hours after the carrageenin injection.
Where [3] appears, read: 2 h, 2 mg/kg p.o., two hours, read-out: Inhibitory rate, two hours after the carrageenin injection.
[4] abbreviates: 3 h, three hours, read-out: Inhibitory rate, three hours after the carrageenin injection.
[5] abbreviates: 3 h, 2 mg/kg p.o., three hours, read-out: Inhibitory rate, three hours after the carrageenin injection.
The mark [6] stands for this setting: 2 h, 5 mg/kg p.o., two hours, read-out: Inhibitory rate, two hours after the carrageenin injection.
Setting [7] is: 3 h, 5 mg/kg p.o., three hours, read-out: Inhibitory rate, three hours after the carrageenin injection.
The mark [8] stands for this setting: 2 h, read-out: Inhibitory rate, two hours after the carrageenin injection.
Setting [9] is: 3 h, read-out: Inhibitory rate, three hours after the carrageenin injection.

Regarding `CC(C(N)=O)c1ccc2c(c1)SCC1CCCCC1C2=O` (single isomer, unassigned) [R, 2-(6,6a,7,8,9,10,10a,11-Octahydro-11-oxodibenzo[b,e]thiepin-3-yl)propionamide-A], the inhibition in vivo at 1 mg/kg in data set [1] (setting [2]) was 29.3%; in data set [1] (setting [4]), 24.7%. In addition, the inhibition in vivo at 2 mg/kg stood at 30.7% in data set [1] (setting [3]) and 27.6% in data set [1] (setting [5]). In addition, the inhibition in vivo at 4 mg/kg in data set [1] (setting [2]) was 38.4%; in data set [1] (setting [4]), 37.7%. Also, the values for the inhibition in vivo at 8 mg/kg in data set [1] (setting [2]) and in data set [1] (setting [4]) were 43.6% and 36%, respectively. Further, the “Number of rats having a score of stomach ulcer of 2 or more/total number of rats used” value (“Number … of 2 or more/total number of rats used” for short) is reported as 0/3 in the data set on stomach ulcer (8 mg/kg p.o.), 4/6 in the data set on stomach ulcer (16 mg/kg p.o.) and 3/3 in the data set with stomach ulcer (32 mg/kg p.o.). For the same compound, the “Average score of stomach ulcer” value with stomach ulcer (8 mg/kg p.o.) worked out at 0.00; in the data set with stomach ulcer (16 mg/kg p.o.) it was 1.67; in the data set on stomach ulcer (32 mg/kg p.o.), 2.33.
Turning to `CC(C(=O)OCCc1ccccc1)c1ccc2c(c1)SCC1CCCCC1C2=O` (stereo not drawn) [L, Phenethyl 2-(6,6a,7,8,9,10,10a,11-octahydro-11-oxodibenzo[b,e]thiepin-3-yl)propionate], the inhibition in vivo at 2 mg/kg in data set [1] (setting [3]) was found to be 20.7%; in data set [1] (setting [5]), 24.8%. Further, the inhibition in vivo at 5 mg/kg was determined as 44.8% in data set [1] (setting [6]) and 39.1% in data set [1] (setting [7]). The “Number … of 2 or more/total number of rats used” value is 1/9 in the data set on stomach ulcer (32 mg/kg p.o.) and 0/6 with stomach ulcer (64 mg/kg p.o.). In addition, the figures for the “Average score of stomach ulcer” value in the data set with stomach ulcer (32 mg/kg p.o.) and in the data set on stomach ulcer (64 mg/kg p.o.) were 0.56 and 0.67, respectively. Besides, the “gastrointestinal ulcerogenicity compared with the known aspirin” value with stomach ulcer was “far less gastrointestinal ulcerogenicity than the known aspirin”. In addition, the LD50 at 168 h in the data set “Acute lethal toxicity” is 230 mg/kg. The “toxicity relative to that of indomethacin” value with male Wistar rats is reported as “about 1/12”.
With `CC(=O)Oc1ccccc1C(=O)O` [Compound 2, Aspirin, reference compound], the figures for the inhibition in vivo at 20 mg/kg in data set [1] (setting [8]) and in data set [1] (setting [9]) were 14.1% and 9%, respectively. The results for the inhibition in vivo at 40 mg/kg in data set [1] (setting [8]) and in data set [1] (setting [9]) were 22.9% and 21.2%, respectively. In addition, the inhibition in vivo at 80 mg/kg in data set [1] (setting [8]) turned out to be 30.8%; in data set [1] (setting [9]), 25.9%. Also, the inhibition in vivo at 160 mg/kg in data set [1] (setting [8]) is 35.1%; in data set [1] (setting [9]) it was 30.9%. For the same compound, the “Number … of 2 or more/total number of rats used” value in the data set on stomach ulcer (20 mg/kg p.o.) is recorded as 0/6; in the data set with stomach ulcer (40 mg/kg p.o.), 3/6; with stomach ulcer (60 mg/kg p.o.), 5/6; with stomach ulcer (80 mg/kg p.o.), 5/6; with stomach ulcer (160 mg/kg p.o.), 6/6. Further, the “Average score of stomach ulcer” value in the data set on stomach ulcer (20 mg/kg p.o.) stood at 0.83; with stomach ulcer (40 mg/kg p.o.), 1.33; in the data set on stomach ulcer (60 mg/kg p.o.) it was 2.33; with stomach ulcer (80 mg/kg p.o.), 3.33; in the data set on stomach ulcer (160 mg/kg p.o.), 4.00.
`CC(C(=O)O)c1ccc2c(c1)SCC1CCCCC1C2=O` (stereo not drawn) [F, 2-(6,6a,7,8,9,10,10a,11-Octahydro-11-oxodibenzo[b,e]thiepin-3-yl)propionicacid-A]: in data set [1] (setting [2]), the inhibition in vivo at 0.2 mg/kg came out at 8.6%, the inhibition in vivo at 0.4 mg/kg was found to be 14.9%, the inhibition in vivo at 0.8 mg/kg was found to be 20.5% and the inhibition in vivo at 1.6 mg/kg turned out to be 28.4%. Moreover, in data set [1] (setting [2]), the inhibition in vivo at 3.2 mg/kg amounted to 36.4%. In data set [1] (setting [4]), the inhibition in vivo at 0.2 mg/kg came to 6.7%, the inhibition in vivo at 0.4 mg/kg is 11.6%, the inhibition in vivo at 0.8 mg/kg stood at 12.6% and the inhibition in vivo at 1.6 mg/kg was 20.3%. Besides, the inhibition in vivo at 3.2 mg/kg in data set [1] (setting [4]) was determined as 30.6%. In addition, the “anti-inflammatory activity compared with the known indomethacin” value in data set [1] (in words, from Table 1) was “comparable or superior to that of the known indomethacin”. Also, in the data set with stomach ulcer (16 mg/kg p.o.), the “Number … of 2 or more/total number of rats used” value is 2/6 and the “Average score of stomach ulcer” value worked out at 1.00. In addition, in the data set on stomach ulcer (32 mg/kg p.o.), the “Number … of 2 or more/total number of rats used” value was 2/6 and the “Average score of stomach ulcer” value is 1.00. In addition, in the data set on stomach ulcer (64 mg/kg p.o.), the “Number … of 2 or more/total number of rats used” value is recorded as 6/9 and the “Average score of stomach ulcer” value was 1.67.
For the compound `CC(C(=O)O)c1ccc2c(c1)SCC1CCCCC1C2=O` (stereo not drawn) [H, Calcium 2-(6,6a,7,8,9,10,10a,11-octahydro-11-oxodibenzo[b,e]thiepin-3-yl)propionate], the inhibition in vivo at 1 mg/kg in data set [1] (setting [2]) is 31.4%; in data set [1] (setting [4]) it was 26.2%. For the same compound, the inhibition in vivo at 4 mg/kg worked out at 39.5% in data set [1] (setting [2]) and 35.7% in data set [1] (setting [4]). Also, the “Number … of 2 or more/total number of rats used” value is 1/3 in the data set with stomach ulcer (16 mg/kg p.o.) and 2/3 in the data set on stomach ulcer (32 mg/kg p.o.). The “Average score of stomach ulcer” value is recorded as 1.00 in the data set on stomach ulcer (16 mg/kg p.o.) and 1.33 in the data set on stomach ulcer (32 mg/kg p.o.).
For `CC(C(=O)OCc1ccccn1)c1ccc2c(c1)SCC1CCCCC1C2=O` (stereo not drawn) [O, 2-Pyridylmethyl 2-(6,6a,7,8,9,10,10a,11-octahydro-11-oxodibenzo[b,e]thiepin-3-yl)propionate], the figures for the inhibition in vivo at 2 mg/kg in data set [1] (setting [3]) and in data set [1] (setting [5]) were 31.4% and 28.8%, respectively. Moreover, the inhibition in vivo at 5 mg/kg is 30.8% in data set [1] (setting [6]) and 30.6% in data set [1] (setting [7]). The “Number … of 2 or more/total number of rats used” value is given as 2/6 with stomach ulcer (32 mg/kg p.o.) and 4/6 in the data set with stomach ulcer (64 mg/kg p.o.). The “Average score of stomach ulcer” value in the data set on stomach ulcer (32 mg/kg p.o.) was 0.67; with stomach ulcer (64 mg/kg p.o.), 1.83.
Turning to `COc1ccc2c(c1)c(CC(=O)O)c(C)n2C(=O)c1ccc(Cl)cc1` [Compound 1, Indomethacin, reference compound], the inhibition in vivo at 2 mg/kg in data set [1] (setting [8]) was found to be 20.5%; in data set [1] (setting [9]) it was 19.3%. The inhibition in vivo at 5 mg/kg in data set [1] (setting [8]) was found to be 42.4%; in data set [1] (setting [9]), 36.3%. Further, the results for the “Average score of stomach ulcer” value with stomach ulcer (4 mg/kg p.o.), with stomach ulcer (8 mg/kg p.o.) and in the data set on stomach ulcer (16 mg/kg p.o.) were 0.50, 1.78 and 2.56, respectively.
`CC(C(=O)OCCc1ccccn1)c1ccc2c(c1)SCC1CCCCC1C2=O` (stereo not drawn) [P, 2-(2-Pyridyl)ethyl 2-(6,6a,7,8,9,10,10a,11-octahydro-11-oxodibenzo[b,e]thiepin-3-yl)propionate]: the inhibition in vivo at 5 mg/kg stood at 27.6% in data set [1] (setting [6]) and 25.5% in data set [1] (setting [7]). Moreover, the figures for the “Number … of 2 or more/total number of rats used” value with stomach ulcer (32 mg/kg p.o.) and in the data set on stomach ulcer (64 mg/kg p.o.) were 0/6 and 3/6, respectively. For the same compound, the “Average score of stomach ulcer” value with stomach ulcer (32 mg/kg p.o.) amounted to 0.17; with stomach ulcer (64 mg/kg p.o.), 0.50. Further, the “gastrointestinal ulcerogenicity compared with the known aspirin” value in the data set on stomach ulcer is given as “far less gastrointestinal ulcerogenicity than the known aspirin”.

Broadly, the LD50 is the dose at which mortality reaches 50%.
